Data from patent publication US9034820B2, “Method and composition for modulating erythropoiesis” (priority 2011, dated 2015).
“Also recorded” adds a separate entry of the source.

Columns and labels:
[1] = test system: human CD133+ hematopoietic stem cells (hHSCs); assay: real-time PCR of erythroid marker mRNA in cultured hHSCs during erythropoietic differentiation; type: cell-based
Experimental: (§1) CD133^+ stem cells were isolated from human umbilical cord blood by magnetic microbead selection using Direct […] progenitor isolation beads (Miltenyi Biotech, Bergisch Gladbach, Germany) and MACS LS-columns (Miltenyi Biotech), and were subsequently cultured. In stage I, 10^5 CD133^+ cells were cultured in 10 ml of EDM (10^4 cells/ml), containing human stem cell factor (SCF, 50 ng/ml), human EPO (6 IU/ml), human interleukin (IL)-3 (10 ng/ml), human vascular endothelial growth factor (VEGF, 10 ng/ml), and human insulin-like growth factor (IGF)-II (250 ng/ml) for 6 days. In stage II, cells were cultured in 10 ml of EDM (3×10^4 cells/ml) in the presence of SCF (50 ng/ml) and EPO (6 IU/ml) for 4 days. In stage III, cells were cultured in 10 ml of EDM (5×10^4 cells/ml) in the presence of SCF (50 ng/ml) and EPO (2 IU/ml) for 6 days. Cultured cells respectively underwent 30-, 20-, and 10-fold expansions in stages I, II, and III. All cell cultures were incubated at 37° C. in 5% CO2 under humidified conditions. LPA (Sigma) was prepared in chloroform and methanol (1:9) and stored at −20° C. LPA was added to serum-free medium with 0.005% fatty acid-free BSA as a carrier.
(§2) Ki16425 (Cayman Chemical, Ann Arbor, Mich., USA) powder was diluted in dimethyl sulfoxide (DMSO) at a concentration of 40 mM as the stock. At the ends of stages I and II, HSCs were pretreated with Ki16425 in serum-free medium for 1 h. Then, cells were cultured in media of stages II and III containing Ki16425 at a final concentration of 20 μM. Quercetin (Sigma) was dissolved in DMSO at 100 mM as the stock and stored at −20° C. Quercetin was diluted into each final concentration by culture media for treatment.
Total RNA extraction was isolated using Trizol Reagent (Invitrogen, Carlsbad, Calif., USA). Complementary (c)DNA was synthesized from 1 μg total RNA with a reverse-transcription polymerase chain reaction (RT-PCR). Primer sequences were:
A real-time PCR with the mixture reagent SYBR®-Green I (Thermo Scientific, San Diego, Calif., USA) was carried out on an iCycler iQ™ real-time detection system (Bio-Rad, Hercules, Calif., USA). The specificity of the primers was confirmed from a single peak of the melting curve. Each target mRNA level was evaluated from the real-time threshold cycle and compared to the GAPDH amount as an internal control.

[2] = test system: human CD133+ hematopoietic stem cells (hHSCs); assay: flow cytometry of CD71 and GlyA protein on cultured hHSCs; type: cell-based; conditions: end of stage II induction
Experimental: as §1, §2
HSC cultures were collected, washed, and stained either with anti-GlyA-PE and anti-CD71-PE/Cy5 for 30 minutes (BD Biosciences Pharmingen, San Diego, Calif., USA). Stained cells were washed and resuspended in PBS. Non-stained and single-stained samples were prepared for fluorescent compensation. […]

[3] = test system: human CD133+ hematopoietic stem cells (hHSCs); assay: expansion and differentiation of hHSC-derived erythroid cells in culture; type: cell-based; conditions: LPA present, EPO-free, data not shown
Experimental: as §1
Ki16425 (Cayman Chemical, Ann Arbor, Mich., USA) powder was diluted in dimethyl sulfoxide (DMSO) at a concentration of 40 mM as the stock. […]

zLPA3 = assay: o-dianisidine blood cell staining of zLPA3 morpholino-injected zebrafish embryos; type: in vivo, zebrafish (Danio rerio); conditions: for percentages of erythrocyte-defective embryos compared to control embryos: 48 hpf and 60 hpf; for effect of LPA3 knockdown on erythrocyte formation (o-dianisidine staining; normal, moderate, severe): injected at one-cell stage, 0, 2.5 and 5 ng, 48 hpf
Experimental: Wild-type zebrafish (Danio rerio) obtained from the Zebrafish Information Research Center (Eugene, Oreg., USA) were inbred at 27-28° C. Embryos were collected from natural spawning, washed, and incubated in 0.3× Danieau's buffer at 28° C. until being used. Each stage of fish embryos was determined from their morphology. Embryos at 12 hour post-fertilization (hpf) were treated with 0.2 mM 1-phenyl-2-thiourea (PTU) (Sigma, St. Louis, Mo., USA) in 0.3× Danieau's buffer to suppress melanization. Dechorionation of embryos was carried out with 0.01 g/ml protease (Sigma).
Glass capillary tubes were pulled by a horizontal puller (P-97, Sutter Instrument, Navato, Calif., USA). Two zLPA3 translation-blocking (t)MOs (Gene Tools, Philomath, Oreg., USA) were utilized as follows:
tMO1: 5′-[…]-3′ (−27 to −3) (SEQ ID No. 1); and
tMO2: 5′-[…]-3′ (+1 to +23) (SEQ ID No. 2).
The MOs were prepared at 1 mM in sterile H2O as a stock solution, and further diluted into desired working concentrations in 1× Danieau's buffer with 0.5% phenol red. Fish embryos were fixed on 1% injection agar plates, and 2.3 nl of solution was injected into the yolk sac and blastodisc interface with a nanoliter injector (World Precision Instruments, Sarasota, Fla., USA). The injected embryos were incubated in 0.3× Danieau's buffer at 28.5° C. for further experiments.
Embryos from designated stages were incubated in freshly prepared o-dianisidine solution (40% ethanol, 0.01 M sodium acetate, 0.65% H2O2, and 0.6 mg/ml o-dianisidine [Sigma]) for 15 minutes in the dark.

[4] = stage II, 24-hour LPA 18:1 (1~10 μM), plasma-free medium, concentration-dependent

CCCCCCCC/C=C\CCCCCCCC(=O)OCC(O)COP(=O)(O)O (stereo not drawn) [LPA, (2-hydroxy-3-phosphonooxypropyl) (Z)-octadec-9-enoate]
mRNA level of CD71 [1, 4]: increased; also recorded: elevated
mRNA level of GATA-1 [1, 4]: elevated
mRNA level of GlyA [1, 4]: elevated
protein expression level of CD71 ([2]; 5 and 10 μM LPA, 4 days): higher levels
protein expression level of GlyA ([2]; 5 and 10 μM LPA, 4 days): not GlyA
differentiation of erythroid cells in the absence of EPO [3]: severely decreased

O=c1c(O)c(-c2ccc(O)c(O)c2)oc2cc(O)cc(O)c12 [quercetin]
increase in CD71 mRNA under LPA induction ([1]; quercetin 5, 20 and 50 μM): suppressed; also recorded: inhibited
LPA-induced protein expression of CD71 ([2]; quercetin (20 μM)): decreased; also recorded: suppressed

tMO1: zLPA3 translation-blocking morpholino 5′-CACTGTCCTAGTGGGTTTTGTCCAA-3′ (SEQ ID No. 1) (all phosphorodiamidate morpholino (PMO))
percentages of erythrocyte-defective embryos compared to control embryos (zLPA3): significantly higher
effect of LPA3 knockdown on erythrocyte formation (o-dianisidine staining; normal, moderate, severe) (zLPA3): dose-dependent effect

tMO2: zLPA3 translation-blocking morpholino 5′-ATGGCCAGGCACAACATCTGCTA-3′ (SEQ ID No. 2) (all phosphorodiamidate morpholino (PMO))
percentages of erythrocyte-defective embryos compared to control embryos (zLPA3): significantly higher
effect of LPA3 knockdown on erythrocyte formation (o-dianisidine staining; normal, moderate, severe) (zLPA3): dose-dependent effect
